What all share (format): functional
The test system of test [1] is Moraxella catarrhalis. The experiment in a line: Antibacterial activity against Moraxella catarrhalis ATCC 8193 assessed as inhibition of bacterial growth by standard broth microdilution susceptibility method.
Test [2] has as its system Staphylococcus aureus. Description: Antibacterial activity against heterogenous vancomycin-intermediate Staphylococcus aureus ATCC NRS24 assessed as inhibition of bacterial growth by standard broth microdilution susceptibility method. For orientation: Broth dilution looks for growth in wells or tubes with falling amounts of substance.
Test [3] has as its system Enterococcus faecalis. The experiment in a line: Antibiofilm activity against VanB-resistant Enterococcus faecalis ATCC 51299 assessed as inhibition of biofilm formation in BHIG medium incubated for 24 hrs by resazurin assay. For orientation: Alamar Blue is a resazurin reagent that responds to reducing activity.
For test [4], the system named is Staphylococcus aureus. Description: Antibacterial activity against methicillin-resistant Staphylococcus aureus ATCC 43300 assessed as inhibition of bacterial growth by standard broth microdilution susceptibility method.
Test [5] has as its system Enterococcus faecalis. Description: Potency index, ratio of vancomycin MIC to test compound MIC for antibacterial activity against VanB-resistant Enterococcus faecalis ATCC 51299 assessed as inhibition of bacterial growth by standard broth microdilution susceptibility method.
The subject of test [6] is Staphylococcus aureus. The experiment in a line: Antibacterial activity against Staphylococcus aureus ATCC 25923 assessed as inhibition of bacterial growth by standard broth microdilution susceptibility method.
For test [7], the system named is Enterococcus gallinarum. Description: Potency index, ratio of vancomycin MIC to test compound MIC for antibacterial activity against VanC-resistant Enterococcus gallinarum ATCC 700221 assessed as inhibition of bacterial growth by standard broth microdilution susceptibility method.
Test [8] deals with Staphylococcus aureus. Description: Antibacterial activity against vancomycin-intermediate Staphylococcus aureus ATCC NRS1 assessed as inhibition of bacterial growth by standard broth microdilution susceptibility method.
Test [9] deals with Enterococcus faecalis. Description: Antibacterial activity against VanB-resistant Enterococcus faecalis ATCC 51299 assessed as inhibition of bacterial growth by standard broth microdilution susceptibility method.
The test system of test [10] is Clostridioides difficile. Description: Antibacterial activity against Clostridium difficile ATCC 43255 assessed as inhibition of bacterial growth by standard broth microdilution susceptibility method.
For test [11], the system named is Enterococcus faecium. Description: Potency index, ratio of vancomycin MIC to test compound MIC for antibacterial activity against VanA-resistant Enterococcus faecium MMX0485 assessed as inhibition of bacterial growth by standard broth microdilution susceptibility method.
The test system of test [12] is Enterococcus faecium. The experiment in a line: Antibacterial activity against VanA-resistant Enterococcus faecium MMX0485 assessed as inhibition of bacterial growth by standard broth microdilution susceptibility method.
Test [13] relates to Enterococcus faecalis. The experiment in a line: Antibacterial activity against VanB-resistant Enterococcus faecalis ATCC 51299 assessed as inhibition of colony formation in BHIG medium incubated for 24 hrs by resazurin assay.
Test [14] relates to Enterococcus gallinarum. The experiment in a line: Antibacterial activity against VanC-resistant Enterococcus gallinarum ATCC 700221 assessed as inhibition of bacterial growth by standard broth microdilution susceptibility method.
Test [15] relates to Enterococcus faecalis. The experiment in a line: Antibacterial activity against VanB-resistant Enterococcus faecalis ATCC 51299 assessed as inhibition of bacterial growth in BHIG medium incubated for 24 hrs by resazurin assay.
For test [16], the system named is Enterococcus faecalis. The experiment in a line: Antibiofilm activity against VanB-resistant Enterococcus faecalis ATCC 51299 assessed as inhibition of biofilm formation by measuring decrease in RFU in BHIG medium incubated for 24 hrs by resazurin assay.
Test [17] deals with Streptococcus pneumoniae. The experiment in a line: Antibacterial activity against […] assessed as inhibition of bacterial growth by standard broth microdilution susceptibility method.
In test [18] the test system is Enterococcus faecalis. The experiment in a line: Antibiofilm activity against VanB-resistant Enterococcus faecalis ATCC 51299 assessed as inhibition of biofilm formation in BHIG medium incubated for 24 hrs by resazurin assay relative to vancomycin.
Test [19] deals with Staphylococcus aureus. The experiment in a line: Potency index, ratio of vancomycin MIC to test compound MIC for antibacterial activity against heterogenous vancomycin-intermediate Staphylococcus aureus ATCC NRS24 assessed as inhibition of bacterial growth by standard broth microdilution susceptibility method.
Test [20] has as its system Staphylococcus aureus. Description: Potency index, ratio of vancomycin MIC to test compound MIC for antibacterial activity against vancomycin-intermediate Staphylococcus aureus ATCC NRS1 assessed as inhibition of bacterial growth by standard broth microdilution susceptibility method.

Values after ≈ are worked out from the molar mass of the structure shown.

By MIC is commonly meant the lowest concentration that inhibits growth of the organism. With `CN[C@H](CC(C)C)C(=O)N[C@H]1C(=O)N[C@@H](CC(N)=O)C(=O)N[C@H]2C(=O)N[C@H]3C(=O)N[C@H](C(=O)N[C@H](C(=O)NCCSSCCCCC[N+](C)(C)C)c4cc(O)cc(O)c4-c4cc3ccc4O)[C@H](O)c3ccc(c(Cl)c3)Oc3cc2cc(c3O[C@@H]2O[C@H](CO)[C@@H](O)[C@H](O)[C@H]2O[C@H]2C[C@](C)(N)[C@H](O)[C@H](C)O2)Oc2ccc(cc2Cl)[C@H]1O`, the MIC in [1] was 2 µg/mL; in test [2] it was greater than 32 µg/mL; in [4], 0.5 µg/mL; in test [6] it was 1 µg/mL; in [8], 1 µg/mL; in [9], 8 µg/mL. Moreover, the MIC in test [10] is no more than 0.015 µg/mL; in test [12] it was 16 µg/mL; in test [14], 4 µg/mL; in test [17], 0.06 µg/mL. In test [3], the MBIC was found to be 16 µg/mL. Besides, the Ratio in test [5], in test [7] and in test [11] was 8 in each case. Further, the Activity in [13] is 16 µg/mL. In addition, the “inhibition (INH)” value came to 97% in test [15] and 87% in [16].
Turning to `CN[C@H](CC(C)C)C(=O)N[C@H]1C(=O)N[C@@H](CC(N)=O)C(=O)N[C@H]2C(=O)N[C@H]3C(=O)N[C@H](C(=O)N[C@H](C(=O)NCCSSCCCCCCCCCCC[N+](C)(C)C)c4cc(O)cc(O)c4-c4cc3ccc4O)[C@H](O)c3ccc(c(Cl)c3)Oc3cc2cc(c3O[C@@H]2O[C@H](CO)[C@@H](O)[C@H](O)[C@H]2O[C@H]2C[C@](C)(N)[C@H](O)[C@H](C)O2)Oc2ccc(cc2Cl)[C@H]1O`, the MIC in test [1] is 1 µg/mL; in test [2], 8 µg/mL; in test [4], 0.5 µg/mL; in [6], 1 µg/mL; in test [8], 0.25 µg/mL; in [9], 2 µg/mL. Besides, the MIC in test [10] is 1 µg/mL; in test [12], 16 µg/mL; in [14], 2 µg/mL; in test [17] it was 0.12 µg/mL. For the same molecule, the MBIC in test [3] was determined as 4 µg/mL. Moreover, the Ratio in test [5] is 8; in test [7], 8; in test [18], 16; in test [11] it was 8. Besides, the Activity in [13] was 4 µg/mL. In addition, the “inhibition (INH)” value in test [15] is reported as 98%; in [16], 84%.
In the case of `CCCCCCCCCCCSSCCNC(=O)[C@H]1NC(=O)[C@H]2NC(=O)[C@H](NC(=O)[C@@H]3NC(=O)[C@H](CC(N)=O)NC(=O)[C@H](NC(=O)[C@@H](CC(C)C)NC)[C@H](O)c4ccc(c(Cl)c4)Oc4cc3cc(c4O[C@@H]3O[C@H](CO)[C@@H](O)[C@H](O)[C@H]3O[C@H]3C[C@](C)(N)[C@H](O)[C@H](C)O3)Oc3ccc(cc3Cl)[C@H]2O)c2ccc(O)c(c2)-c2c(O)cc(O)cc21`, the MIC in [1] is 0.5 µg/mL (≈ 0.295 µM); in [2], 1 µg/mL (≈ 0.59 µM); in test [4], 1 µg/mL (≈ 0.59 µM); in [6], 1 µg/mL (≈ 0.59 µM); in test [8], 0.5 µg/mL (≈ 0.295 µM); in test [9] it was 0.25 µg/mL (≈ 0.148 µM). Besides, the minimum inhibitory concentration (MIC) in test [10] was 0.12 µg/mL (≈ 0.0708 µM); in test [12], 2 µg/mL (≈ 1.18 µM); in test [14], 4 µg/mL (≈ 2.36 µM); in test [17], 0.25 µg/mL (≈ 0.148 µM). Moreover, the MBIC in [3] was 2 µg/mL. Also, the Ratio in test [5], in test [19], in test [11] and in test [20] was 16 each time. The Activity in [13] was determined as 2 µg/mL. Besides, the “inhibition (INH)” value in [15] was determined as 99%; in test [16], 92%.
`CCCCCCSSCCNC(=O)[C@H]1NC(=O)[C@H]2NC(=O)[C@H](NC(=O)[C@@H]3NC(=O)[C@H](CC(N)=O)NC(=O)[C@H](NC(=O)[C@@H](CC(C)C)NC)[C@H](O)c4ccc(c(Cl)c4)Oc4cc3cc(c4O[C@@H]3O[C@H](CO)[C@@H](O)[C@H](O)[C@H]3O[C@H]3C[C@](C)(N)[C@H](O)[C@H](C)O3)Oc3ccc(cc3Cl)[C@H]2O)c2ccc(O)c(c2)-c2c(O)cc(O)cc21`: the MIC in [1] came to 2 µg/mL (≈ 1.23 µM); in [2], 0.5 µg/mL (≈ 0.308 µM); in [4] it was 0.12 µg/mL (≈ 0.0739 µM); in test [6], 0.12 µg/mL (≈ 0.0739 µM); in [8], 0.5 µg/mL (≈ 0.308 µM); in [9] it was 0.25 µg/mL (≈ 0.154 µM). Besides, the minimum inhibitory concentration (MIC) in test [10] was found to be 0.5 µg/mL (≈ 0.308 µM); in test [12], 16 µg/mL (≈ 9.85 µM); in test [14], 4 µg/mL (≈ 2.46 µM); in [17], 0.06 µg/mL (≈ 0.0369 µM). For the same molecule, the MBIC in test [3] was 2 µg/mL. For the same molecule, the Ratio in test [5], in test [19], in [11] and in [20] was 16 in each case. Also, the Activity in test [13] worked out at 2 µg/mL. Further, the “inhibition (INH)” value in test [15] and in [16] was 100% each time.
As for `CN[C@H](CC(C)C)C(=O)N[C@H]1C(=O)N[C@@H](CC(N)=O)C(=O)N[C@H]2C(=O)N[C@H]3C(=O)N[C@H](C(=O)N[C@H](C(=O)NCCSSCC[N+](C)(C)C)c4cc(O)cc(O)c4-c4cc3ccc4O)[C@H](O)c3ccc(c(Cl)c3)Oc3cc2cc(c3O[C@@H]2O[C@H](CO)[C@@H](O)[C@H](O)[C@H]2O[C@H]2C[C@](C)(N)[C@H](O)[C@H](C)O2)Oc2ccc(cc2Cl)[C@H]1O`, the MIC is 2 µg/mL in test [1]; greater than 32 µg/mL in test [2]; 0.5 µg/mL in test [4]; 1 µg/mL in test [6]; 0.5 µg/mL in [8]; 16 µg/mL in test [9]. Further, the MIC is no more than 0.015 µg/mL in test [10], 32 µg/mL in test [12], 4 µg/mL in [14] and 0.25 µg/mL in test [17]. Also, in [3], the MBIC worked out at 16 µg/mL. Also, the Ratio in test [5], in [7] and in test [11] was 8 each time. For the same molecule, the Activity in test [13] was found to be 16 µg/mL. Further, the entries for the “inhibition (INH)” value in test [15] and in [16] were 100% and 91%, respectively.
For `CN[C@H](CC(C)C)C(=O)N[C@H]1C(=O)N[C@@H](CC(N)=O)C(=O)N[C@H]2C(=O)N[C@H]3C(=O)N[C@H](C(=O)N[C@H](C(=O)NCCCS)c4cc(O)cc(O)c4-c4cc3ccc4O)[C@H](O)c3ccc(c(Cl)c3)Oc3cc2cc(c3O[C@@H]2O[C@H](CO)[C@@H](O)[C@H](O)[C@H]2O[C@H]2C[C@](C)(N)[C@H](O)[C@H](C)O2)Oc2ccc(cc2Cl)[C@H]1O`, the MIC was 16 µg/mL (≈ 10.5 µM) in test [1]; greater than 32 µg/mL in test [2]; 4 µg/mL (≈ 2.63 µM) in [4]; 4 µg/mL (≈ 2.63 µM) in test [6]; 8 µg/mL (≈ 5.25 µM) in test [8]; 4 µg/mL (≈ 2.63 µM) in test [9]. The MIC in test [10] was 0.12 µg/mL (≈ 0.0788 µM); in [12], 1 µg/mL (≈ 0.657 µM); in test [14], 1 µg/mL (≈ 0.657 µM); in test [17] it was no more than 0.03 µg/mL. Besides, the MBIC in [3] was 4 µg/mL. Further, the Ratio in [18] is 16. Further, the Activity in test [13] was 4 µg/mL. In addition, the “inhibition (INH)” value in [15] came to 100%; in [16] it was 95%.
As for `CN[C@H](CC(C)C)C(=O)N[C@H]1C(=O)N[C@@H](CC(N)=O)C(=O)N[C@H]2C(=O)N[C@H]3C(=O)N[C@H](C(=O)N[C@H](C(=O)NCCS)c4cc(O)cc(O)c4-c4cc3ccc4O)[C@H](O)c3ccc(c(Cl)c3)Oc3cc2cc(c3O[C@@H]2O[C@H](CO)[C@@H](O)[C@H](O)[C@H]2O[C@H]2C[C@](C)(N)[C@H](O)[C@H](C)O2)Oc2ccc(cc2Cl)[C@H]1O`, the MBIC in test [3] came to 4 µg/mL. Moreover, the minimal inhibitory concentration (MIC) amounted to 4 µg/mL (≈ 2.65 µM) in [4], 4 µg/mL (≈ 2.65 µM) in test [6], 2 µg/mL (≈ 1.33 µM) in test [9] and 2 µg/mL (≈ 1.33 µM) in test [14]. In addition, the Ratio in test [18] came to 16. For the same molecule, the Activity in test [13] stood at 4 µg/mL. Besides, the “inhibition (INH)” value in test [15] stood at 100%; in [16], 99%.
